# Biological target: T1, Ba/F3 cell EGFR Exon20 ins NPH (Homo sapiens, UniProt P00533, INS773NPH)
# T1 construct: expressed in transfected cells; host or cells: Ba/F3
# Assay: Ba/F3 cell proliferation suppression, EGFR Exon20 ins NPH
# Type: cell-based
# Conditions: GI50 class; Ba/F3 cell line with NPH inserted at Exon20 of EGFR; 72 hours
# Procedure, shortened: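 72 h compound exposure, 0.3 nM–50 um (12 points, 3:1 dilution in DMSO); viability by CellTiter-Glo luminescence. Ba/F3 medium: RPMI-1640, 10% FBS, 5 ng/ml IL-3, 1 ug/ml puromycin for transduced cells. GI50 vs control, n=3.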
row,Ba/F3 (NPH) Activity,SMILES
1,A (GI50 < 50 nM),"C=CC(=O)Nc1cc(Nc2cc(N3OCC[C@@H]3c3cccc(OC)c3)ncn2)c(OC)cc1N1CCC(N2CC[C@H](N(C)C)C2)CC1 [compound 729, N-(2-(4-((S)-3-(dimethylamino)pyrolidine-1-yl)piperidine-1-yl)-4-methoxy-5-((6-((R)-3-(3-methoxyphenyl)isoxazolidine-2-yl)pyrimidine-4-yl)amino)phenyl)acrylamide]"
2,A (GI50 < 50 nM),"C=CC(=O)Nc1cc(Nc2cc(N3OCC[C@@H]3Cc3cccc(Cl)c3Cl)ncn2)c(OC)cc1N1CC[C@@H](N(C)C)C1 [compound 984, N-(5-((6-((S)-3-(2,3-dichlorobenzyl)isoxazolidine-2-yl)pyrimidine-4-yl)amino)-2-((R)-3-(dimethylamino)pyrolidine-1-yl)-4-methoxyphenyl) acrylamide]"
3,A (GI50 < 50 nM),"C=CC(=O)Nc1cc(Nc2cc(N3OCC[C@@H]3c3cccc(C)c3F)ncn2)c(OC)cc1N1CCC(N2CCC(N(C)C)CC2)CC1 [compound 420, N-(2-(4-(dimethylamino)-[1,4'-bipiperidine]-1'-yl)-5-((6-((R)-3-(2-fluoro-3-methylphenyl)isoxazolidine-2-yl)pyrimidine-4-yl)amino)-4-methoxyphenyl) acrylamide]"
4,A (GI50 < 50 nM),"C=CC(=O)Nc1cc(Nc2cc(N3OCC[C@@H]3c3ccccc3)ncn2)c(OC)cc1N1CCC(N2CCN(C(C)=O)CC2)CC1 [Example 284, N-(2-(4-(4-acetylpiperazine-1-yl)piperidine-1-yl)-4-methoxy-5-((6-((R)-3-phenylisoxazolidine-2-yl)pyrimidine-4-yl)amino)phenyl) acrylamide]"
5,A (GI50 < 50 nM),"C=CC(=O)Nc1cc(Nc2cc(N3OCC[C@@H]3c3ccc(Cl)c(Cl)c3)ncn2)c(OC)cc1N1CCN(C2CC2)CC1 [compound 673, N-(2-(4-cyclopropylpiperazine-1-yl)-5-((6-((R)-3-(3,4-dichlorophenyl)isoxazolidine-2-yl)pyrimidine-4-yl)amino)-4-methoxyphenyl) acrylamide]"
6,C (500 nM ≤ GI50 < 5000 nM),"C=CC(=O)Nc1cc(Nc2cc(N3OCC[C@@H]3c3ccc(C)nc3)ncn2)c(OC)cc1N1CCC(N2C[C@H]3C[C@@H]2CN3C)CC1 [Example 234, N-(4-methoxy-2-(4-((1R,4R)-5-methyl-2,5-diazabicyclo[2.2.1]heptane-2-yl)piperidine-1-yl)-5-((6-((R)-3-(6-methylpyridine-3-yl)isoxazolidine-2-yl)pyrimidine-4-yl)amino)phenyl)acrylamide]"
7,B (50 nM ≤ GI50 < 500 nM),"C=CC(=O)Nc1cc(Nc2cc(N3OCC[C@@H]3c3ccc4ccccc4c3)ncn2)c(OC)cc1N1CCO[C@H](C)C1 [compound 663, N-(4-methoxy-2-((R)-2-methylmorpholino)-5-((6-((R)-3-(naphthalene-2-yl)isoxazolidine-2-yl)pyrimidine-4-yl)amino)phenyl)acrylamide]"
8,A (GI50 < 50 nM),"C=CC(=O)Nc1cc(Nc2cc(N3OCC[C@@H]3c3cc(F)ccc3F)ncn2)c(OC)cc1N1CCC(N2CCOCC2)CC1 [compound 766, N-(5-((6-((R)-3-(2,5-difluorophenyl)isoxazolidine-2-yl)pyrimidine-4-yl)amino)-4-methoxy-2-(4-morpholinopiperidine-1-yl)phenyl)acrylamide]"
9,A (GI50 < 50 nM),"C=CC(=O)Nc1cc(Nc2cc(N3OCC[C@@H]3Cc3cccc(F)c3C)ncn2)c(OC)cc1N1CC[C@@H](N(C)C)C1 [compound 1002, N-(2-((R)-3-(dimethylamino)pyrolidine-1-yl)-5-((6-((S)-3-(3-fluoro-2-methylbenzyl)isoxazolidine-2-yl)pyrimidine-4-yl)amino)-4-methoxyphenyl) acrylamide]"
10,A (GI50 < 50 nM),"C=CC(=O)Nc1cc(Nc2cc(N3OCC[C@@H]3c3cc(F)ccc3F)ncn2)c(OC)cc1N1CCC(N2CCC(F)(F)CC2)CC1 [compound 817, N-(2-(4,4-difluoro-[1,4'-bipiperidine]-1'-yl)-5-((6-((R)-3-(2,5-difluorophenyl)isoxazolidine-2-yl)pyrimidine-4-yl)amino)-4-methoxyphenyl) acrylamide]"
11,A (GI50 < 50 nM),"C=CC(=O)Nc1cc(Nc2cc(N3OCC[C@@H]3c3cc(F)cc(Cl)c3)ncn2)c(OC)cc1N(C)CCN(C)C [compound 538, N-(5-((6-((R)-3-(3-chloro-5-fluorophenyl)isoxazolidine-2-yl)pyrimidine-4-yl)amino)-2-((2-(dimethylamino)ethyl)(methyl)amino)-4-methoxyphenyl)acrylamide]"
12,B (50 nM ≤ GI50 < 500 nM),"C=CC(=O)Nc1cc(Nc2cc(N3OCC[C@@H]3c3ccc(C)nc3)ncn2)c(OC)cc1N1CCC(N(C)CCOC)CC1 [Example 229, N-(4-methoxy-2-(4-((2-methoxyethyl)(methyl)amino)piperidine-1-yl)-5-((6-((R)-3-(6-methylpyridine-3-yl)isoxazolidine-2-yl)pyrimidine-4-yl)amino)phenyl)acrylamide]"
13,A (GI50 < 50 nM),"C=CC(=O)Nc1cc(Nc2cc(N3OCC[C@@H]3c3ccccc3)ncn2)c(OC)cc1N1CCC(N2CC[C@@H](N(C)C)C2)CC1 [compound 787, N-(2-(4-((R)-3-(dimethylamino)pyrolidine-1-yl)piperidine-1-yl)-4-methoxy-5-((6-((R)-3-phenylisoxazolidine-2-yl)pyrimidine-4-yl)amino)phenyl) acrylamide]"
14,A (GI50 < 50 nM),"C=CC(=O)Nc1cc(Nc2cc(N3OCC[C@@H]3c3cccc(Cl)c3Cl)ncn2)c(OC)cc1N1CCOCC1 [compound 517, N-(5-((6-((R)-3-(2,3-dichlorophenyl)isoxazolidine-2-yl)pyrimidine-4-yl)amino)-4-methoxy-2-morpholinophenyl) acrylamide]"
15,A (GI50 < 50 nM),"C=CC(=O)Nc1cc(Nc2cc(N3OCC[C@@H]3c3cccc(C#N)c3)ncn2)c(OC)cc1N1CCC(N(C)C)CC1 [compound 394, N-(5-((6-((R)-3-(3-cyanophenyl)isoxazolidine-2-yl)pyrimidine-4-yl)amino)-2-(4-(dimethylamino)piperidine-1-yl)-4-methoxyphenyl) acrylamide]"
16,A (GI50 < 50 nM),"C=CC(=O)Nc1cc(Nc2cc(N3OCC[C@@H]3c3cccc(Cl)c3F)ncn2)c(OC)cc1N1CCC(N2CCCN(C3CC3)CC2)CC1 [compound 358, N-(5-((6-((R)-3-(3-chloro-2-fluorophenyl)isoxazolidine-2-yl)pyrimidine-4-yl)amino)-2-(4-(4-cyclopropyl-1,4-diazepane-1-yl)piperidine-1-yl)-4-methoxyphenyl) acrylamide]"
17,A (GI50 < 50 nM),"C=CC(=O)Nc1cc(Nc2cc(N3OCC[C@@H]3Cc3cccc(Cl)c3C)ncn2)c(OC)cc1N1CCC(N2CCN(C3CC3)CC2)CC1 [compound 1025, N-(5-((6-((S)-3-(3-chloro-2-methylbenzyl)isoxazolidine-2-yl)pyrimidine-4-yl)amino)-2-(4-(4-cyclopropylpiperazine-1-yl)piperidine-1-yl)-4-methoxyphenyl) acrylamide]"
18,A (GI50 < 50 nM),"C=CCN1CCN(C2CCN(c3cc(OC)c(Nc4cc(N5OCC[C@@H]5c5cccc(Cl)c5C)ncn4)cc3NC(=O)C=C)CC2)CC1 [Example 213, N-(2-(4-(4-allylpiperazine-1-yl)piperidine-1-yl)-5-((6-((R)-3-(3-chloro-methylphenyl)isoxazolidine-2-yl)pyrimidine-4-yl)amino)-4-methoxyphenyl) acrylamide]"
19,A (GI50 < 50 nM),"C=CC(=O)Nc1cc(Nc2cc(N3OCC[C@@H]3c3cccc(C#N)c3)ncn2)c(OC)cc1N1CCC(N2CCN(C(C)=O)CC2)CC1 [compound 434, N-(2-(4-(4-acetylpiperazine-1-yl)piperidine-1-yl)-5-((6-((R)-3-(3-cyanophenyl)isoxazolidine-2-yl)pyrimidine-4-yl)amino)-4-methoxyphenyl) acrylamide]"
20,B (50 nM ≤ GI50 < 500 nM),"C=CC(=O)Nc1cc(Nc2cc(N3OCC[C@@H]3c3cccc(OC)c3)ncn2)c(OC)cc1N1CCC(N2CCC(N(C)C)CC2)CC1 [compound 781, N-(2-(4-(dimethylamino)-[1,4'-bipiperidine]-1'-yl)-4-methoxy-5-((6-((R)-3-(3-methoxyphenyl)isoxazolidine-2-yl)pyrimidine-4-yl)amino)phenyl)acrylamide]"
21,A (GI50 < 50 nM),"C=CC(=O)Nc1cc(Nc2cc(N3OCC[C@@H]3c3cc(F)cc(Cl)c3)ncn2)c(OC)cc1N1CCC(N2CCN(C3CC3)C[C@@H]2C)CC1 [Example 160, N-(5-((6-((R)-3-(3-chloro-5-fluorophenyl)isoxazolidine-2-yl)pyrimidine-4-yl)amino)-2-(4-((S)-4-cyclopropyl-2-methylpiperazine-1-yl)piperidine-1-yl)-4-methoxyphenyl) acrylamide]"
22,B (50 nM ≤ GI50 < 500 nM),"C=CC(=O)Nc1cc(Nc2cc(N3OCC[C@@H]3Cc3cc(F)cc(F)c3)ncn2)c(OC)cc1N1CCN(C2CC2)CC1 [compound 1032, N-(2-(4-cyclopropylpiperazine-1-yl)-5-((6-(S)-(3-(3,5-difluorobenzyl)isoxazolidine-2-yl)pyrimidine-4-yl)amino)-4-methoxyphenyl) acrylamide]"
23,A (GI50 < 50 nM),"C=CC(=O)Nc1cc(Nc2cc(N3OCC[C@@H]3c3cccc(Cl)c3)ncn2)c(OC)cc1N1CCC(N2CCOCC2)CC1 [compound 417, N-(5-((6-((R)-3-(3-chlorophenyl)isoxazolidine-2-yl)pyrimidine-4-yl)amino)-4-methoxy-2-(4-morpholinopiperidine-1-yl)phenyl) acrylamide]"
